Measured values taken from patent EP4799646A1, “COMPOSITION AND METHOD FOR INCREASING BIOAVAILABILITY OF ACTIVE INGREDIENT” (Everfront Biotech Inc., priority 2023, dated 2025).
Converted amounts (≈) assume the structure as drawn. Like-named read-outs stand apart in the source and are kept apart here.

Columns and labels:
[1] = Appearance (phase separation) of compositions after preparation; solubility of BP in sesame oil; format: physicochemical; details: concluded from absence of phase separation in Compositions 1 to 4
Description: In a glass bottle, components were mixed with the dosage ratios shown in Table 1 to provide a mixture, and the mixture was rapidly stirred with a magnetic stirrer for 20 minutes to form a homogeneous liquid, thereby respectively preparing Compositions 1 to 4. After removing the magnetic stirrer, the glass bottle was tightly sealed and its appearance was observed and photographed, the results are shown in FIG. 1. Table 1: Volume Percentages of Composition in Compositions 1 to 4.

[2] = tested on: pancreatic cancer cell lines Mia-PaCa2; assay: MTT assay, IC50 against pancreatic cancer cells (cytotoxicity study II); format: cell-based; details: Homo sapiens
Description: The culture medium in each well of the cell culture plates was removed, and MTT reagent was added (to reach a final concentration of 0.5 mg/mL in each well). The plates were then placed in a 37°C, 5% CO2 incubator for 2 to 4 hours to form purple needle-like formazan crystals. Subsequently, the solution was aspirated, and 500 µL of dimethyl sulfoxide (DMSO) was added to each well. After shaking with a shaker for 5 to 10 minutes to completely dissolve the purple crystals, the absorbance at a wavelength of 570 or 595 nm was measured using an ELISA reader. The survival rate of the cells was calculated based on the absorbance, with the blank group as the baseline (the survival rate of the blank group was set to 100%). The data of the experimental group serum collected 2 hours after oral administration of the soft capsules are shown in FIG. 7; the data of the experimental group serum collected at 1, 4, 8, or 24 hours are shown in FIG. 8.
Cell cultures in this example were all conducted in an environment of 95% relative humidity, 5% CO2, and 37°C.
Pancreatic cancer cell lines Mia-PaCa2 were grouped and respectively cultured in 96-well cell culture plates for 24 hours using the following culture media: • 1. "Z-BP" Group: Mia-PaCa2 cell culture medium supplemented with Z-BP. • 2. […]

In the case of `CCCC=C1OC(=O)c2ccccc21` [BP, n-butylidenephthalide], the “solubility in sesame oil” value [1] was “good solubility”.
For `CCC/C=C1\OC(=O)C2=C1CCC=C2` [LG, Ligustilide], the IC50 ([2]; MIA PaCa-2, Mia-PaCa2 cells, 24 hours, MTT, oil groups: active mixed with oil in equal proportions, read-out: IC50) was 44.1 µg/mL (≈ 232 µM).
`CCC/C=C1\OC(=O)c2ccccc21` [Z-BP, (Z)-n-butylidenephthalide] gave an IC50 ([2]; MIA PaCa-2, 24 h) of 63.8 µg/mL (≈ 339 µM).
